Earlier results as cited in patent publication US20100247512A1, “Pericellular Collagenase Directs the 3-Dimensional Development of White Adipose Tissue” (The Regents of the University of Michigan, priority 2006, published 2010).
The star is where a group is joined. Decanoyl = CCCCCCCCCC(=O)*; CH2Cl = ClC*

Assays:
pro-MT1-MMP = conditions: Rosenthal, et al., 2005
MT1-MMP = MT1-MMP (Homo sapiens, UniProt P50281); conditions: Rosenthal, et al., 2005

Substance	inhibition of intracellular conversion of pro-MT1-MMP to its active form (pro-MT1-MMP)	inhibition of MT1-MMP, blocking collagenolysis (MT1-MMP)
deconyl-Arg-Val-Lys-Arg-CMK (Decanoyl-RVKR-CH2Cl)	inhibits the intracellular conversion of pro-MT1-MMP to its active form	
TIMP-1: member of the tissue inhibitors of metalloproteinases (TIMPs), a family of natural protein MMP inhibitors		poor inhibitor of MT1-MMP
